Data published in article PMC11897524 (Frontiers in Pharmacology, 2025).

Assays:
[1] = target: BRD2 (Homo sapiens, UniProt P25440); test: Binding affinity to BET and STAT family members
[2] = target: BRD3 (Homo sapiens, UniProt Q15059); test: Binding affinity to BET and STAT family members
[3] = target: STAT4 (Homo sapiens, UniProt Q14765); test: Binding affinity to BET and STAT family members
[4] = target: STAT5a (Homo sapiens, UniProt P42229); test: Binding affinity to BET and STAT family members
[5] = system: CAKI-2 cells; test: MTT cytotoxicity assay; assay type: cell-based, human
Description: Human normal renal cortical proximal tubular epithelial cell line HK-2 and human renal carcinoma cell lines CAKI-2, SLR-23, 769-P, A704 and RCC4 were previously purchased from the American Type Culture Collection (ATCC, Manassas, VA, USA) or the European Collection of Cell Cultures (ECACC, Salisbury, United Kingdom). HK2, A704, and RCC4 cells were maintained in high glucose DMEM supplemented with 10% FBS and 1% penicillin/streptomycin. SLR-23 and […] cells were cultured in RPMI-1640 medium with 10% FBS and 1% penicillin/streptomycin. CAKI-2 cells were maintained in McCoy’s 5A medium supplemented with 10% FBS and 1% penicillin/streptomycin. All the cell lines were cultured at 37°C in a humidified atmosphere of 5% CO2 and 95% air.
(§1) The effect of hit compounds on cytotoxicity was determined as previously reported ([Ding et al., 2020]). In brief, cells treated with the tested compounds were added with MTT reagent to form formazan crystals, and then the optical density (OD) values at 570 nm were determined after the crystals were dissolved in DMSO. […] Next, the values of IC50 of the selected compounds against more RCC cell lines were determined. The 5 × 10^3 cells in 100 μL culture medium were injected into each well of a 96-well plate and cultured overnight. Add different concentrations of compounds and incubate for 48 h. Then 100 μL of MTT (0.5 mg/mL) solution was added to the 96-well plate and maintained at 37°C for 4 h. Finally, 200 μL of DMSO was added and shaken for 10 min. The OD values at 570 nm were determined by a Synergy 4 microplate reader.

[6] = system: PBMCs; test: MTT cytotoxicity assay; assay type: cell-based; details: PBMC, 48 h treatment, read-out: IC50 (μM) ± SD PBMCs
Description: as §1

[7] = system: c-myc mRNA; test: RT-qPCR of c-myc mRNA in CAKI-2 cells; assay type: cell-based, human; details: 24 h, different concentrations
Description: This method was performed as previously reported. Briefly, the CAKI-2 cells were seeded into 6-well plates and cultured overnight, and treated with different concentrations of BST-4 for 24 h. RNA was extracted from cells and tissues using Trizol reagent and reverse transcribed using PrimeScriptRTase. cDNA was used for RT-qPCR SYBR Green assays (Takara). The relative levels of c-myc mRNA were calculated as [(c-myc mRNA in the treatment group)/(β-actin mRNA in the treatment group)]/[(c-myc mRNA in the control group)/(β-actin mRNA in the control group).

[8] = system: CAKI-2 xenograft tumors; test: CAKI-2 cell-derived xenograft model; assay type: in vivo, BALB/c nude mice; details: 10 mg/kg intraperitoneally every 12 h, nude mice
Description: (§2) To further investigate the in vivo effects of BST-4, 6–8 weeks male BALB/c nude mice were obtained by Changzhou Cavens Experimental Animal Co., Ltd. (Changzhou, China). The mice were acclimatized to the laboratory environment for a week before the experiment. The housing conditions were maintained at a temperature of 22°C ± 2°C, a relative humidity of 50%–60%, and a 12-h light/dark cycle. 0.1 mL of CAKI-2cell suspension (1 × 10⁶ cells) was subcutaneously injected into the right flank of each mouse. […] The vehicle group was injected with a vehicle solution consisting of 5% DMSO and PBS. The tumor volume of mice was measured every 2 days and calculated according to the formula: (c × c × d)/2, where c and d represent the minimum diameter and maximum diameter, respectively. All animal experiments were performed and approved by the Ethics Committee of China Pharmaceutical University.

[9] = Hematology parameters of treated mice; assay type: in vivo, BALB/c nude mice; details: BST-4-treated vs vehicle groups
Description: as §2
FIGURE 12 Hematology parameters of mice in the BST-4-treated groups and vehicle groups. (A) White blood cell (WBC); (B) Red blood cells (RBC); (C) Platelets (PLT); (D) Hemoglobin (HGB). Data are presented as the mean ± SD, n = 5.

[10] = target: T1, BRD4 (Homo sapiens, UniProt O60885); test: AlphaScreen BRD4 binding inhibition assay; design: purchased Abcam
Description: The inhibitory effect was measured through the previously described the amplified luminescent proximity homogeneous assay (AlphaScreen) ([Feng et al., 2018]). First, the compounds were diluted twofold to different concentrations (64, 32, 16, 8, 4, 2, 1, 0.5, 0.25, 0.125, 0.0625 nM) and each was incubated with BRD4 protein at a concentration of 12.5 nM for 15 min at room temperature. Biotin-labeled peptide (SGRG-K(Ac)-GG-K(Ac)-GLG-K(Ac)-GGA-K (Ac)-RHRKVGG-K-biotin) was added for 10 min, followed by streptavidin donor beads and AlphaScreen nickel chelate acceptor and incubation for 1h. All components were incubated in a total volume of 20 μL assay buffer containing 20 mM HEPES, pH 7.4, 0.1% bovine serum albumin (BSA, w/v), 0.01% Triton X-100, and 1 mM DTT. Finally, counts were measured by EnVision (Perkin Elmer, Hopkinton, MA) and analyzed by Graphpad Prism 7.0 software.

[11] = target: T1, BRD4; test: NanoBRET assay in HEK293T cells; assay type: cell-based; design: NanoLuc BRD4/STAT3 FL Fusion Vector DNA; expressed in transfected cells; host or cells: HEK293T
Description: (§3) The method was performed as previously reported ([Horai et al., 2024]). Briefly, HEK293T cells were seeded in dishes and allow the cells to attach and recover for overnight. The mixture of Histone H4 HaloTag Fusion vector DNA, NanoLuc BRD4/STAT3 FL Fusion Vector DNA, opti-MEM, and FuGENE HD was added dropwise to the HEK293T cells followed by incubation for 20–24 h at 37°C and 5% CO2 and allow the proteins to express. The cells were collected and re-seeded in 384 well plates. HaloTag NanoBRET 618 Ligand was added to plate and allow the cells to attach and recover for 4 h. Serially diluted compounds were transferred to the plate and incubated the plate overnight. Then NanoBRET Nano-Glo Substrate in Opti-MEM was added, and shake plate to mix. The donor emission (450 nm) and acceptor emission (610 nm), BRET signal, were measured within 10 min of substrate addition using microplate reader (Envision, PerkinElmer). Data analysis was done by measuring the ratio of acceptor emission to donor emission (BRET ratio). IC50 values and curve fits were obtained using GraphPad Prism 7.0 software.

[12] = target: STAT3 (Homo sapiens, UniProt P40763); test: NanoBRET assay in HEK293T cells; assay type: cell-based; design: NanoLuc BRD4/STAT3 FL Fusion Vector DNA; expressed in transfected cells; host or cells: HEK293T
Description: as §3

Chain of STAT3 (P40763 2-770): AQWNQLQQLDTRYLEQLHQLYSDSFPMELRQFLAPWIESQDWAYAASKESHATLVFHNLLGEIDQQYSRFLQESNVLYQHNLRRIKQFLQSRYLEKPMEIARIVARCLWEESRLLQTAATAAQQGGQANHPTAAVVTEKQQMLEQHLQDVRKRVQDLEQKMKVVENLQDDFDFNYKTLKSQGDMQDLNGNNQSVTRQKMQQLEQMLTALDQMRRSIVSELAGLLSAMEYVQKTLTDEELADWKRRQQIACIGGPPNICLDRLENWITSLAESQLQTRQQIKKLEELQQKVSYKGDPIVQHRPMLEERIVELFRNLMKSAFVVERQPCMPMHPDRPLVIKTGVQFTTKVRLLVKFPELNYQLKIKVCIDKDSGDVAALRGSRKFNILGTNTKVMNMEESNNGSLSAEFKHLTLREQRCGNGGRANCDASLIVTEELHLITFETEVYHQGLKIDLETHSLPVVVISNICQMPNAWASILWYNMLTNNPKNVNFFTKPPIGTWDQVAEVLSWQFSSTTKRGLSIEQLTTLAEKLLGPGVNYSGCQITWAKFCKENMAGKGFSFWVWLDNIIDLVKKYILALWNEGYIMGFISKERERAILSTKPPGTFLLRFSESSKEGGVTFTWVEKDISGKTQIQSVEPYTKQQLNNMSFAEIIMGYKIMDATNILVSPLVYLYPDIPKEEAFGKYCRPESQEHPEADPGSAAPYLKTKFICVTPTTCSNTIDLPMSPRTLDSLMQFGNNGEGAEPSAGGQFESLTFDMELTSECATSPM
Chain of STAT4 (Q14765 whole entry): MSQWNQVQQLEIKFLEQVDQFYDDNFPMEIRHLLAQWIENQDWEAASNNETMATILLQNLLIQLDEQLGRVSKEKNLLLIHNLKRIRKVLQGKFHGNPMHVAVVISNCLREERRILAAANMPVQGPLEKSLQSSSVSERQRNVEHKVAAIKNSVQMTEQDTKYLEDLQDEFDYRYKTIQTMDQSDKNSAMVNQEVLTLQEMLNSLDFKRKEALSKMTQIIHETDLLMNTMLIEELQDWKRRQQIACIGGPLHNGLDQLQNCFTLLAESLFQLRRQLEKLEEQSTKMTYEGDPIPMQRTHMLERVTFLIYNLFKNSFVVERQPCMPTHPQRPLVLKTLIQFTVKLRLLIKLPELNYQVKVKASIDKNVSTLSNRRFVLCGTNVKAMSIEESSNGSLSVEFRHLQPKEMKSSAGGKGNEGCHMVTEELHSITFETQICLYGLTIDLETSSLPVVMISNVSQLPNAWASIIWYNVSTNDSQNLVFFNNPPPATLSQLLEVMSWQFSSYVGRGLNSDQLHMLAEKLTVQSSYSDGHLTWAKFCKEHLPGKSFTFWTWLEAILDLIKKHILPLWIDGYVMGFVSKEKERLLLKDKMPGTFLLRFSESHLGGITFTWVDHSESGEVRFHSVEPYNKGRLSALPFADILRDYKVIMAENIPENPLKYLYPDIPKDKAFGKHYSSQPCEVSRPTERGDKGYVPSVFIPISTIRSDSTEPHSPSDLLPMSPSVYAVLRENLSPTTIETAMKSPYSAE
Chain of BRD3 (Q15059 whole entry): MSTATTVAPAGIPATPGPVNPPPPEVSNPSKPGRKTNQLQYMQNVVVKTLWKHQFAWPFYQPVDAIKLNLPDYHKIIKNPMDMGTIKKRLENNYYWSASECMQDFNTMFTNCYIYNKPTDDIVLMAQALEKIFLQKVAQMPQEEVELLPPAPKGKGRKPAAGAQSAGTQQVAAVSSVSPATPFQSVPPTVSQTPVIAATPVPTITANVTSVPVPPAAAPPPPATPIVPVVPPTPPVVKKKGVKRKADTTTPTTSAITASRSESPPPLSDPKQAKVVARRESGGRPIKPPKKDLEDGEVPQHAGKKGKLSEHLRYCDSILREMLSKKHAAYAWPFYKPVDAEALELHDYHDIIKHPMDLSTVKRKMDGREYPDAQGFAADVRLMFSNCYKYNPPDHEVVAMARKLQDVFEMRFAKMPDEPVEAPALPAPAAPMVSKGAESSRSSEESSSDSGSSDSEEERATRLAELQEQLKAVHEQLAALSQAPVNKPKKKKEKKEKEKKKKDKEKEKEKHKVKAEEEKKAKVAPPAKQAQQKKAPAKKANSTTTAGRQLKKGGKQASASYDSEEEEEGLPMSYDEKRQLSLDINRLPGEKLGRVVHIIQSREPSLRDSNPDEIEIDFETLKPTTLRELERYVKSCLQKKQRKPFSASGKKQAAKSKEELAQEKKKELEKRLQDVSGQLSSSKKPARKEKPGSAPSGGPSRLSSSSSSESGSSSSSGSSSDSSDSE
Chain of BRD2 (P25440 whole entry): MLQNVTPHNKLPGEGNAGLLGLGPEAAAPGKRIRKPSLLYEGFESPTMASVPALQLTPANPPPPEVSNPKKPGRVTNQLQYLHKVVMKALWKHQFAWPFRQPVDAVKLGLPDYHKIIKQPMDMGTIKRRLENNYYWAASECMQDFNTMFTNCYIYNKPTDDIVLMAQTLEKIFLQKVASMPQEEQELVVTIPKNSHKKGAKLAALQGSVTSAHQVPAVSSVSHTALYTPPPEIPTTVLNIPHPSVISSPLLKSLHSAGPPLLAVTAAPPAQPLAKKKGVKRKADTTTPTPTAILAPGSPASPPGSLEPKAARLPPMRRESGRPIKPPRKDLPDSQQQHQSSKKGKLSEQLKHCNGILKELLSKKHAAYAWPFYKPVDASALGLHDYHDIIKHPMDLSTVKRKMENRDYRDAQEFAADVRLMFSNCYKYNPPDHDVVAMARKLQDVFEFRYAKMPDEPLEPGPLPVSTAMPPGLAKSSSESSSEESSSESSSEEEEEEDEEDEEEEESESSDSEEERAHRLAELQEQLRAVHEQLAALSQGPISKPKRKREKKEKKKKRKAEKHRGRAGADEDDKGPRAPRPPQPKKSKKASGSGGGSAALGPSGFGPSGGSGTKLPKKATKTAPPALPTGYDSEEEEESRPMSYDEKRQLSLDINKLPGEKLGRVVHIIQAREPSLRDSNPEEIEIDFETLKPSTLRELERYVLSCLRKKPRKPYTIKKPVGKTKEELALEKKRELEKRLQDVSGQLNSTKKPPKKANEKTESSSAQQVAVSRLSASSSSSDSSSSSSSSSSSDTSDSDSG
Chain of STAT5a (P42229 whole entry): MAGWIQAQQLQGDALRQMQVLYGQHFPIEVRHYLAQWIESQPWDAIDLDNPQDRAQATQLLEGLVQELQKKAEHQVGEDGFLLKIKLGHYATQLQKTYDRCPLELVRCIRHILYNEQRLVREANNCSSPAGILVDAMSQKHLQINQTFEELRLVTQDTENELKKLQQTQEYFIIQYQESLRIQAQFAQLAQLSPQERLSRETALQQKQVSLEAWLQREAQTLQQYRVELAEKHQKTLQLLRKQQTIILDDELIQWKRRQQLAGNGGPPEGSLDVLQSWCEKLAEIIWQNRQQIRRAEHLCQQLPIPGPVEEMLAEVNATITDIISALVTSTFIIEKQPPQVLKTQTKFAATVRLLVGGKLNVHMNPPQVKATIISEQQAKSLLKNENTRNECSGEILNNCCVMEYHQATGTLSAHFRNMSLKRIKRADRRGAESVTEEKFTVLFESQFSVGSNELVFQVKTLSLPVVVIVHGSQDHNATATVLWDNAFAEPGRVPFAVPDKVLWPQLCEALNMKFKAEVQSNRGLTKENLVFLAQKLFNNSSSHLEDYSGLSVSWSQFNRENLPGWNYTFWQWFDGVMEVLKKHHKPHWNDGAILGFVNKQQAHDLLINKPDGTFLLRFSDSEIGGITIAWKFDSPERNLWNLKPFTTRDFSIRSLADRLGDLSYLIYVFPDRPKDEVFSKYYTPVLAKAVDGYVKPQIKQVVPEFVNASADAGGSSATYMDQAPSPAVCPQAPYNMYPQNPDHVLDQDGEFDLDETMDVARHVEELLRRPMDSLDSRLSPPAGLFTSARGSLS

SMILES: CCS(=O)(=O)Cc1cnc(Oc2c(F)cc(F)cc2OCCCCOc2ccc(/C=C/c3cc(OC)cc(OC)c3)cc2)c(-c2cc(C)c3c(=O)[nH]ccn23)c1 [BST-4]
- Kd [1]: > 10 µM
- Kd [2]: > 10 µM
- Kd [3]: > 10 µM
- Kd [4]: > 10 µM
- IC50 ([5]; Homo sapiens, CAKI-2, cell growth, 48 h treatment, read-out: IC50 (μM) ± SD CAKI-2): 0.76 ± 0.05 µM
- cell inhibitory rate (%) against CAKI-2 cells ([5]; all compounds at the same concentration): more than 95%
- IC50 [6]: > 10 µM
- expression of c-myc mRNA in CAKI-2 cells [7]: strongly dose-dependent downregulated
- tumor growth (tumor volume) in CAKI-2 xenograft [8]: significantly inhibited tumor growth
- levels of representative hematological markers (WBC, RBC, PLT, HGB) vs vehicle [9]: no significant differences
- IC50 [10]: 0.00245 ± 0.00011 µM
- BRD4 inhibition relative to RVX-208 ([10]; IC50 ratio vs RVX-208): about 16 fold
- IC50 [11]: 0.00258 ± 7e-05 µM
- IC50 [12]: 0.00517 ± 9e-05 µM
